Laboratory results reported in patent publication US20090081636A1, “Pharmaceutical compositions for and methods of inhibiting HCV replication” (priority 2005, published 2009).
Entries after “also recorded” stand apart in the source; their conditions may differ.

Experiments:
[1] = tested on: HCV replicon cells; assay: HCV replicon assay; type: cell-based
Procedure: Cells expressing the HCV replicon are seeded onto the internal wells of 96-well plates at a density of 7,000 cells per well. One day later, different dilutions of the test compounds are added to corresponding wells and the plates are incubated in a CO2 incubator for 72 hours. After treatment, the cells are lysed with 70 μl RLN buffer per well (50 mM Tris-HCl [pH8.0], 140 mM NaCl, 1.5 mM MgCl2, 0.5% Nonidet P-40, 1,000 units/mL RNAsin and 1 mM […]). The total lysate is transferred to a new U bottom 96-well plate and nuclei and cell debris are pelleted with a brief spin (300×g for 3 minutes). 50 μl of supernatant is removed from the well and loaded directly onto manifold wells equipped with Nylon membranes. HCV RNA is hybridized at 58° C. overnight using a labeled HCV RNA probe containing a negative strand sequence complement to the NS5B region. Hybridization buffer is composed of 50% formamide, 5×SSPE, 1% SDS, 5×Denhart's solution, and sheared denatured salmon sperm DNA. Following hybridization, the membrane is washed with washing buffer (0.1×SSC, 0.1% SDS) at room temperature for two hours, then at 65° C. for 30 minutes. The radioactivity in each well is counted on a Microbeta counter and EC50 is calculated based on cpm.
Alternatively, HCV replicon cells are trypsinized for 5-10 minutes in a CO2 incubator. Then, cells are placed in a 15 mL tube, and are spun at 1000 rpm for 4 minutes and trypsin solution is removed. Cell pellets are washed once with PBS and spun 4 minutes at 1000 rpm.
Trypsinization and wash steps, supra, are conducted efficiently to minimize cell death. PBS is removed and cells are resuspended in 4 mL fresh PBS and cells are seeded at a dilution of 5000 cells per well to 96 well plates. Test compounds are diluted in 96 well U bottom plates with DMEM (high glucose) (BRL, Catalog #21063) supplemented with 10% FBS, L-glutamine, and non-essential amino acid. 100 uL of test compound is loaded into each well. […]
100 uL of development solution (TMB one-step substrate system) is added and plates are developed in the dark for 10 to 30 minutes. […] OD450 is measured.

[2] = target: T1, synthetic NS4A (Hepatitis C virus genotype 1b, UniProt Q9WMX2); assay: Competition assay for NS4A binding against [3H] labeled azidoacylthiourea; set-up: species or system HCV
T1 construct: The full length of NS4A (54 amino acids) is synthesized; made in house
T1 sequence (Q9WMX2 1658-1711): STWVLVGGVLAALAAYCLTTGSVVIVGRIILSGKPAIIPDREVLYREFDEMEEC
Procedure: (§1) To determine whether acylthiourea compounds bind to NS4A, a photo-affinity labeling is carried out, in which an [^3H] labeled photo-reactive azidoacylthiourea, 1-(5-Azido-benzofuran-2-carbonyl)-3-(4-pentyloxy-3-trifluoromethyl-phenyl)-thiourea, is mixed with synthetic NS4A at various molar ratios. The mixture is incubated at 31° C. for one hour. Samples are then illuminated by a UV lamp (254 nm wavelength) at room temperature for 7 minutes. After denaturing with equal volume of Laemmli buffer containing 5% mercaptoethanol at 99° C. for 5 minutes, samples are separated on a 10-20% SDS-PAGE. After electrophoresis, the gel is fixed with 30% methanol-10% acetic acid overnight. Then the gel is treated with 3H enhancer solution (PerkinElmer) at room temperature for one hour, and subsequently with water for 30 minutes, and dried under vacuum.
To study the binding specificity of [^3H] labeled 1-(5-Azido-benzofuran-2-carbonyl)-3-(4-pentyloxy-3-trifluoromethyl-phenyl)-thiourea to synthetic NS4A, several structurally related compounds are used in the following competition assays. Non-labeled 1-(5-Azido-benzofuran-2-carbonyl)-3-(4-pentyloxy-3-trifluoromethyl-phenyl)-thiourea shares the same structure with [^3H] labeled 1-(5-Azido-benzofuran-2-carbonyl)-3-(4-pentyloxy-3-trifluoromethyl-phenyl)-thiourea. 1-(5-Azido-benzofuran-2-carbonyl)-3-(4-pentyloxy-3-trifluoromethyl-phenyl)-urea differs in structure from 1-(5-Azido-benzofuran-2-carbonyl)-3-(4-pentyloxy-3-trifluoromethyl-phenyl)-thiourea in that 1-(5-Azido-benzofuran-2-carbonyl)-3-(4-pentyloxy-3-trifluoromethyl-phenyl)-urea has a carbonyl group where 1-(5-Azido-benzofuran-2-carbonyl)-3-(4-pentyloxy-3-trifluoromethyl-phenyl)-thiourea has a thiocarbonyl group. […]

[3] = target: full-length NS3 (Hepatitis C virus genotype 1b, UniProt Q9WMX2); assay: Photo-affinity labeling binding assay, full-length NS3; set-up: species or system HCV; conditions: 3.3 μM protein
Chain of full-length NS3 (Q9WMX2 1027-1657): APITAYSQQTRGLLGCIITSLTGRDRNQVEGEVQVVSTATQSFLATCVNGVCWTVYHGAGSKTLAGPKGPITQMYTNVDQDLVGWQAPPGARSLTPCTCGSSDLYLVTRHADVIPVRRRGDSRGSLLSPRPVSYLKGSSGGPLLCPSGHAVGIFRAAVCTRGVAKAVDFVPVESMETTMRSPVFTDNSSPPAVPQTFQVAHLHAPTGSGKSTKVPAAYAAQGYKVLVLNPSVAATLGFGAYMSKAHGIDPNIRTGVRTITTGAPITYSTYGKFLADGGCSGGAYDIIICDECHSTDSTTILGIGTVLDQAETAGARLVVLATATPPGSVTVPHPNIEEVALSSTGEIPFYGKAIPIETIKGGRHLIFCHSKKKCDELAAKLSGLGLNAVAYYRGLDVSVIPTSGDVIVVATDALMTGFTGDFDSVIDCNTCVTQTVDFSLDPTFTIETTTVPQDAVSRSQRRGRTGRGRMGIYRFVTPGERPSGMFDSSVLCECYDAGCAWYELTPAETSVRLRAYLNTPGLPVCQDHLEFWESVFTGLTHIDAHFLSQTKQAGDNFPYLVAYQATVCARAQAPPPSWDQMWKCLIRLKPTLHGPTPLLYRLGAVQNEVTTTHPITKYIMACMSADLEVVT
Procedure: as §1
(§2) One band corresponds to NS4A monomer, which is also detectable with Coomassie blue staining (FIG. 3). […] Without being bound by any particular theory, it is believed that this band may be composed largely of polymer form or aggregates of NS4A. At the same time, full-length NS3 and NS3 protease domain is included in this binding assay.

[4] = target: NS3 protease domain (Hepatitis C virus genotype 1b, UniProt Q9WMX2); assay: Photo-affinity labeling binding assay, NS3 protease domain; set-up: species or system HCV; conditions: 3.3 μM protein
Chain of NS3 protease domain (Q9WMX2 1027-1208): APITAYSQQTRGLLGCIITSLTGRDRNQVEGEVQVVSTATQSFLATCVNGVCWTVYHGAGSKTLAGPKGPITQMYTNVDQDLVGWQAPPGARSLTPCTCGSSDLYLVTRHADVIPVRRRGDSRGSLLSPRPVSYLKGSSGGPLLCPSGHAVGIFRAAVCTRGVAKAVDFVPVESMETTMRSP
Procedure: as §1, §2

[5] = target: T1, synthetic NS4A; assay: Photo-affinity labeling of synthetic NS4A; type: binding, HCV; conditions: [3H] labeled compound, UV 254 nm photolysis, SDS-PAGE
Procedure: Experiments are undertaken to investigate the affinity and binding specificity of acylthiourea compounds to NS4A. The full length of NS4A (54 amino acids) is synthesized, and characterized with mass spectral analysis and HPLC profiling. An NS4A sample is then dissolved in 100% dimethylsulphoxide (DMSO) at a concentration of 2 μg/μl, and subjected to a 10-20% SDS-PAGE with a reducing reagent. A 6 kDa protein band, consistent with the size of NS4A, is detected in the gel following a Coomassie blue staining. The NS4A identity of this band is further confirmed by a Western blot with monoclonal anti-NS4A antibody.
as §1, with “Then the gel is treated with 3H enhancer solution (PerkinElmer) at room temperature for one hour, and subsequently with water for 30 minutes, and dried under vacuum.” left out

Row | SMILES | anti-HCV activity in replicon cells [1] | competition with [3H] labeled azidoacylthiourea for NS4A binding [2] | binding to full-length NS3 [3] | binding to NS3 protease domain [4] | binding to synthetic NS4A [5]
1 | CCCCCOc1ccc(NC(=S)NC(=O)c2cccnc2)cc1C(F)(F)F [1-(4-Pentyloxy-3-trifluoromethyl-phenyl)-3-(pyridine-3-carbonyl)-thiourea] | exhibit anti-HCV activities | effectively compete | – | – | –
2 | CCCCCOc1ccc(NC(=S)NC(=O)c2cc3cc(N=[N+]=[N-])ccc3o2)cc1C(F)(F)F [1-(5-Azido-benzofuran-2-carbonyl)-3-(4-pentyloxy-3-trifluoromethyl-phenyl)-thiourea] | – | – | weak binding signals | weak binding signals | binds to synthetic NS4A; also recorded: two radioactive bands
3 | CCCCCOc1ccc(NC(=O)NC(=O)c2cc3cc(N=[N+]=[N-])ccc3o2)cc1C(F)(F)F [1-(5-Azido-benzofuran-2-carbonyl)-3-(4-pentyloxy-3-trifluoromethyl-phenyl)-urea] | does not exhibit any anti-HCV activity | does not compete; also recorded: abolish this competition capacity | – | – | –
4 | CCCCCOc1ccc(NC(=S)NC(=O)c2cc3ccccc3o2)cc1C(F)(F)F [1-(Benzofuran-2-carbonyl)-3-(4-pentyloxy-3-trifluoromethyl-phenyl)-thiourea] | exhibit anti-HCV activities | effectively compete | – | – | –
